Reference: PMC12715762, “Discovery of VU6052254: A Novel, Potent M1 Positive Allosteric Modulator” (ACS Chemical Neuroscience, 2025)
Converted amounts (≈) assume the structure as drawn. “And” between values parts separate entries of the source, which are not always exact repeats. Identical values can stand only once.

Assays:
[1] = solubility in simulated intestinal fluid (FaSSIF); assay type: physicochemical
[2] = system: hM2-5; experiment: muscarinic selectivity calcium mobilization (human M2-5); assay type: cell-based
Method: (§1) Procedures for Biological Experiments
(§2) Calcium mobilization assays:
All functional cell-based assays were performed in stable Chinese Hamster Ovary (CHO) cell lines constitutively expressing human M5 or human M1 receptors. For full muscarinic selectivity, CHO cells expressing human M3, human M2 plus Gqi5 or human M4 plus Gqi5 were used. Cells were plated at 15,000 cells per 20 µL per well in black 384-well, TC-treated, clear-bottomed plates (Greiner) in Ham’s F12 medium supplemented with 10% FBS and 20 mM HEPES. Cells were incubated overnight at 37 °C under 5% CO2. […] The compound plate, cell plate, and plates containing EC20 and EC80 acetylcholine concentrations were placed in a Hamamatsu FDSS 6000 or 7000 kinetic imaging plate reader equipped to measure Ex480/Em540 fluorescence. […] After 2 seconds of collecting baseline fluorescence, 20 µL of the compound solutions were added to the cell plate. […] The fluorescence signal was collected for a total of 300 seconds. […] Data were imported and analyzed in Dotmatics Informatics software. by normalizing all data in the individual kinetic traces to the initial fluorescence read. The magnitude of each agonist addition was then determined and normalized to the average maximum response. […] The IC50 determined using the EC80 of acetylcholine is the value reported. […]

[3] = solubility in simulated gastric fluid (FaSSGF); assay type: physicochemical; details: fassgf or other biorelevant
[4] = target: CYP 1A2 (Homo sapiens, UniProt P05177); experiment: CYP450 inhibition; assay type: in vitro ADME
[5] = predicted hepatic clearance, hepatic microsomes (human); assay type: in vitro ADME; details: human (h)
Method: (§3) After a 5 min preincubation, the reaction was initiated by the addition of NADPH (1 mM). At selected time intervals (0, 3, 7, 15, 25, and 45 min), aliquots were taken and subsequently placed into a 96-well plate containing cold acetonitrile with internal standard (50 ng/mL carbamazepine). Plates were then centrifuged at 3000 rcf (4 °C) for 10 min, and the supernatant was transferred to a separate 96-well plate and diluted 1:1 with water for LC/MS/MS analysis. The in vitro half-life ( 1/2, min, Eq. 1), intrinsic clearance (CLint, mL/min/kg, Eq. 2), and subsequent predicted hepatic clearance (CLhep, mL/min/kg, Eq. 3) was determined employing the […]
(§4) where k represents the slope from linear regression analysis of the natural log percent remaining of a test compound as a function of incubation time […]
(§5) (2) CLint = in vitroT x mg microsomes x gram liver x kg body wt ascale-up factors: of 20 (human) or 45 (rat) […]
(§6) where Qh (hepatic blood flow, mL/min/kg) is 21 (human) or 70 (rat).
(§7) LC/MS/MS Bioanalysis of Samples from Plasma Protein Binding and Intrinsic Clearance […]
(§8) Samples were analyzed on a Thermo Electron TSQ Quantum Ultra triple quad mass spectrometer (San Jose, CA) via electrospray ionization (ESI) with two Themo Electron Accella pumps (San Jose, CA), and a Leap Technologies CTC PAL autosampler (Carrboro, NC). […]

[6] = target: T1, human M1 (Homo sapiens, UniProt P11229); experiment: M1 PAM calcium mobilization assay (human); assay type: cell-based; details: for hM1 PAM AChmax (%): human M1, % ACh max, n = 9
T1 sequence (P11229 1-460): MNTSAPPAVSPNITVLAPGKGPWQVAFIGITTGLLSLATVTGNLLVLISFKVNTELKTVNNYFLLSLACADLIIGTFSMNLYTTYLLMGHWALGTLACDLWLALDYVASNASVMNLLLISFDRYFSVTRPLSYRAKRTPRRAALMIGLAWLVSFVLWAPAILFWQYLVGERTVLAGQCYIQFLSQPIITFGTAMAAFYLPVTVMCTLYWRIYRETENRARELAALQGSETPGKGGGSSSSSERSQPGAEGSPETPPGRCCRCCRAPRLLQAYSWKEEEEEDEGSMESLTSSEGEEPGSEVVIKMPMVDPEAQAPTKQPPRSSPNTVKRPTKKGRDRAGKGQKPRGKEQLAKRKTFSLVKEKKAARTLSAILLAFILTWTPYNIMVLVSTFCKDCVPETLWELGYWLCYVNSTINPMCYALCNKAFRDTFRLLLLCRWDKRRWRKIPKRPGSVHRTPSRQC
Method: as §1, §2
All functional cell-based assays were performed in stable Chinese Hamster Ovary (CHO) cell lines constitutively expressing human M5 or human M1 receptors. For full muscarinic selectivity, CHO cells expressing human M3, human M2 plus Gqi5 or human M4 plus Gqi5 were used. Cells were plated at 15,000 cells per 20 µL per well in black 384-well, TC-treated, clear-bottomed plates (Greiner) in Ham’s F12 medium supplemented with 10% FBS and 20 mM HEPES. Cells were incubated overnight at 37 °C under 5% CO2. The following day, the medium was removed and replaced with 1.2 µM Fluo-4 AM (Invitrogen) in assay buffer (Hank’s Balanced Salt Solution supplemented with 20 mM HEPES and 2.5 mM Probenecid, pH 7.4) and the cells were incubated for 50 minutes at 37 °C under 5% CO2. Dye was then removed and replaced with 20 µL of fresh assay buffer. Test compounds at a 10 mM concentration in DMSO were serially diluted in DMSO (either 1:3 or 1:5 dilution) to create a 10-point concentration series. The DMSO solutions were then diluted in assay buffer resulting in compound solutions at 2-times the final assay concentration with the highest assay concentration of 30 µM. The compound plate, cell plate, and plates containing EC20 and EC80 acetylcholine concentrations were placed in a Hamamatsu FDSS 6000 or 7000 kinetic imaging plate reader equipped to measure Ex480/Em540 fluorescence. Data were collected at 1 frame per second. After 2 seconds of collecting baseline fluorescence, 20 µL of the compound solutions were added to the cell plate. This was followed by the addition of an EC20 concentration of acetylcholine at 142 seconds. […] The fluorescence signal was collected for a total of 300 seconds. […] Data were imported and analyzed in Dotmatics Informatics software. by normalizing all data in the individual kinetic traces to the initial fluorescence read. The magnitude of each agonist addition was then determined and normalized to the average maximum response. […] The IC50 determined using the EC80 of acetylcholine is the value reported. […]

[7] = predicted hepatic clearance (cyno); assay type: in vitro ADME; details: cyno (c)
Method: as §3, §4, §5, §6, §7, §8

[8] = predicted hepatic clearance (dog); assay type: in vitro ADME; details: dog (d)
Method: as §3, §4, §5, §6, §7, §8

Chain of CYP 1A2 (P05177 whole entry): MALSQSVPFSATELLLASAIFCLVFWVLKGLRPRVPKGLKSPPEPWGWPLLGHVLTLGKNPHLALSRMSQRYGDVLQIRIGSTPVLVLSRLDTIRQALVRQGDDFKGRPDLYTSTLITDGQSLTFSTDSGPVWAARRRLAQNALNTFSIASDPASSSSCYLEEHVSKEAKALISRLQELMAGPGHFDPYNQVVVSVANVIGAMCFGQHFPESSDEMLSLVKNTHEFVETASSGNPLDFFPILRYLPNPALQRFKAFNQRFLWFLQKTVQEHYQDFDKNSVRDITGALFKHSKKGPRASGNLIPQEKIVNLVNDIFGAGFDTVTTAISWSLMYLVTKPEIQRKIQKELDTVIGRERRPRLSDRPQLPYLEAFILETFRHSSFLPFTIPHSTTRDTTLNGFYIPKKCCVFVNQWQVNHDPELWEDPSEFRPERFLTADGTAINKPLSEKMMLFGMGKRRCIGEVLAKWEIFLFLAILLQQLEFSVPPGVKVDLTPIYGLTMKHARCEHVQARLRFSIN

Row | SMILES | solubility [1] | EC50 [2] | solubility [3] | IC50 [4] | Predicted CLhep [5] | hM1 PAM AChmax (%) [6] | Predicted CLhep [7] | Predicted CLhep [8] | EC50 ([6]; human M1, n = 9, read-out: hM1 PAM EC50)
1 | Cn1cc2c(-c3cc(F)c(CN4Cc5ncccc5C4=O)c(F)c3)cccc2n1 [compound 1, reference compound] | 7 µg/mL (≈ 17.9 µM) | > 30 µM | 36 µg/mL (≈ 92.2 µM) | 14 µM | 1.3 mL/min/kg | 71% | 5.6 mL/min/kg | 5.5 mL/min/kg | 
2 | Cn1cc2c(-c3cc(F)c(CN4Cc5ncccc5C4=O)c(F)c3)ccc(C(C)(C)O)c2n1 [compound 7] | 11 µg/mL (≈ 24.5 µM) | > 30 µM | 24.8 µg/mL (≈ 55.3 µM) | > 30 µM | 12.8 mL/min/kg | 78% and 80% | 17.7 mL/min/kg | 8.0 mL/min/kg | 0.059 µM
